Experimental findings from US8557995B2, “Solid dispersions containing kinase inhibitors” (AbbVie Inc., priority 2010, dated 2013) are described below.

This data set can be described thus: solubility in water. The settings on record: pH 7.4, aqueous buffer. Format: physicochemical. The source says: Examples of such active ingredients are, for example, Biopharmaceutics Classification System (BCS) Class IV drug substances that are characterized by low solubility and low permeability (see “Waiver of in vivo bioavailability and bioequivalence studies for immediate-release solid oral dosage forms based on a biopharmaceutics classification system”, U.S. Department of Health and Human Services, Food and Drug Administration, Center for Drug Evaluation and Research (CDER), August 2000). It will be recognized that aqueous solubility of many compounds is pH-dependent; in the case of such compounds the solubility of interest herein is at a physiologically relevant pH, for example a pH of about 1 to about 8.

`Nc1ncc(-c2cnn(CCO)c2)c2scc(-c3ccc(NC(=O)Nc4cccc(F)c4)cc3)c12` [N-(4-{4-amino-7-[1-(2-hydroxyethyl)-1H-pyrazol-4-yl]thieno[3,2-c]pyridin-3-yl}phenyl)-N′-(3-fluorophenyl)urea] came in with a solubility of less than 0.03 µg/mL.
